Data set [1] relates to MV4-11. As to the kind of experiment: Antiproliferative activity against human MV4-11 cells.
Data set [2] is described as follows: Metabolic stability in human liver microsomes assessed as half life preincubated for 5 mins followed by NADPH addition measured for 5 to 90 mins by LC-MS/MS analysis. In kind it is ADME, Microsome. The conditions noted are these: time 10-95 min. On the technique in general: Liver microsomes are a subcellular fraction often used to study metabolism.
Data set [3] can be described thus: Metabolic stability in human liver microsomes assessed as clearance preincubated for 5 mins followed by NADPH addition measured for 5 to 90 mins by LC-MS/MS analysis. The format is ADME, Microsome. The conditions noted are these: time 10-95 min, read-out: CLH.
In data set [4] the test system is HL-60. As to the kind of experiment: Antiproliferative activity against human HL-60 cells. In kind it is functional, cell-based.
The subject of data set [5] is HCT-116. In words: Antiproliferative activity against human HCT-116 cells. In kind it is functional, cell-based.
The test system of data set [6] is MV4-11. In words: Induction of apoptosis in human MV4-11 cells incubated for 72 hrs by Annexin V-FITC/PI staining based flow cytometry. The format is functional, cell-based. To be noted: dose 0.25-10 µM. For orientation: Flow cytometry measures light scatter and fluorescence of single cells or particles in a stream.
In data set [7] the test system is MV4-11. In words: Induction of apoptosis in human MV4-11 cells at 0.25 to 10 uM incubated for 72 hrs by Annexin V-FITC/PI staining based flow cytometry (reference value: 43.2 %). The conditions noted are these: dose 0.25-10 µM. In kind it is functional.
Data set [8] in a line: Blood concentration elimination rate constant for the terminal phase in ICR mouse at 1 mg/kg, iv measured for 5 to 480 mins by LC-MS/MS analysis. The format is ADME, organism-based. The conditions noted are these: time 5-480 min, read-out: LambdaZ (converted).
Data set [9] is described as follows: Half life in ICR mouse at 1 mg/kg, iv measured for 5 to 480 mins by LC-MS/MS analysis. In kind it is ADME, organism-based. The conditions noted are these: in vivo, time 5-480 min.
The nature of data set [10]: Tmax in ICR mouse at 1 mg/kg, iv measured for 5 to 480 mins by LC-MS/MS analysis. The format is ADME, organism-based. The conditions noted are these: in vivo, time 5-480 min.
Data set [11] can be described thus: Cmax in ICR mouse at 1 mg/kg, iv measured for 5 to 480 mins by LC-MS/MS analysis. The format is ADME, organism-based. The conditions noted are these: in vivo, time 5-480 min.
Data set [12] is described as follows: AUC (0 to t) in ICR mouse at 1 mg/kg, iv measured for 5 to 480 mins by LC-MS/MS analysis. To be noted: in vivo, time 5-480 min. In kind it is ADME, organism-based.
Data set [13] can be described thus: AUC (0 to infinity) in ICR mouse at 1 mg/kg, iv measured for 5 to 480 mins by LC-MS/MS analysis. The format is ADME, organism-based. To be noted: in vivo, time 5-480 min.
Data set [14] in a line: MRT in ICR mouse at 1 mg/kg, iv measured for 5 to 480 mins by LC-MS/MS analysis. In kind it is ADME, organism-based. The conditions noted are these: in vivo, time 5-480 min.
Data set [15] in a line: Clearance in ICR mouse at 1 mg/kg, iv measured for 5 to 480 mins by LC-MS/MS analysis. The format is ADME, organism-based. To be noted: in vivo, time 5-480 min.
A short description of data set [16]: Volume of distribution at steady state in ICR mouse at 1 mg/kg, iv measured for 5 to 480 mins by LC-MS/MS analysis. The format is ADME, organism-based. To be noted: in vivo, time 5-480 min.
Data set [17] is described as follows: Blood concentration elimination rate constant for the terminal phase in ICR mouse at 10 mg/kg, po measured for 5 to 480 mins by LC-MS/MS analysis. The format is ADME, organism-based. To be noted: time 5-480 min, read-out: LambdaZ (converted).
The nature of data set [18]: Half life in ICR mouse at 10 mg/kg, po measured for 5 to 480 mins by LC-MS/MS analysis. The format is ADME, organism-based. The conditions noted are these: in vivo, time 5-480 min.
Data set [19] is described as follows: Tmax in ICR mouse at 10 mg/kg, po measured for 5 to 480 mins by LC-MS/MS analysis. In kind it is ADME, organism-based. The conditions noted are these: in vivo, time 5-480 min.
The nature of data set [20]: Cmax in ICR mouse at 10 mg/kg, po measured for 5 to 480 mins by LC-MS/MS analysis. To be noted: in vivo, time 5-480 min. In kind it is ADME, organism-based.
Data set [21] in a line: AUC (0 to t) in ICR mouse at 10 mg/kg, po measured for 5 to 480 mins by LC-MS/MS analysis. In kind it is ADME, organism-based. The conditions noted are these: in vivo, time 5-480 min.
A short description of data set [22]: AUC (0 to infinity) in ICR mouse at 10 mg/kg, po measured for 5 to 480 mins by LC-MS/MS analysis. The format is ADME, organism-based. The conditions noted are these: in vivo, time 5-480 min.
Data set [23] in a line: MRT in ICR mouse at 10 mg/kg, po measured for 5 to 480 mins by LC-MS/MS analysis. In kind it is ADME, organism-based. To be noted: in vivo, time 5-480 min.
The nature of data set [24]: Clearance in ICR mouse at 10 mg/kg, po measured for 5 to 480 mins by LC-MS/MS analysis. The format is ADME, organism-based. To be noted: in vivo, time 5-480 min.
Data set [25] in a line: Oral bioavailability in ICR mouse at 10 mg/kg measured for 5 to 480 mins by LC-MS/MS analysis. In kind it is ADME, organism-based. To be noted: in vivo, time 5-480 min.
Data set [26] in a line: Drug uptake in ICR mouse plasma at 1 mg/kg, iv measured for 5 to 480 mins by LC-MS/MS analysis. In kind it is ADME, organism-based. To be noted: in vivo, time 5-480 min.
Data set [27] is described as follows: Drug uptake in ICR mouse plasma at 10 mg/kg, po measured for 5 to 480 mins by LC-MS/MS analysis. In kind it is ADME, organism-based. To be noted: in vivo, time 5-480 min.

From ChEMBL document CHEMBL6153075, “Design, synthesis, and antitumor evaluation of triazolopyridine derivatives as novel inhibitors for BRD4” (Eur J Med Chem, 2025) come the findings set out here.

In turn, `Cc1nnc2ccc(-c3nc4cnc(N5CCOCC5)cn4c3Nc3ccc(C(F)(F)F)cc3)cn12` had a concentration for half-maximal inhibition (IC50) in [1] of 290 nM. The half-life in data set [2] was 154 min. The microsomal CLint in data set [3] is 4.52 µL/min/mg.
Take `Cc1nnc2ccc(-c3nc4cnc(-c5cnn(C)c5)cn4c3Nc3ccc(F)cc3)cn12`: the IC50 in [1] came out at 4900 nM; in data set [4], 8.25 µM.
Consider `CCc1nnc2ccc(-c3nc4cnc(N5CCN(C)CC5)cn4c3Nc3ccc(F)c(Cl)c3)cn12`, for which half-maximal inhibition in data set [1] (IC50) was put at 740 nM. This lies in the sub-micromolar range.
With `COc1ccc(Nc2c(-c3ccc4nnc(C)n4c3)nc3cnc(N4CCOCC4)cn23)cc1`, the half-maximal inhibitory concentration (IC50) was 560 nM in [1] and 4.49 µM in [5].
For `CCc1nnc2ccc(-c3nc4cnc(-c5cnn(C)c5)cn4c3Nc3ccc(F)cc3Br)cn12`, in data set [1], the half-maximal inhibitory concentration (IC50) worked out at 20 nM. Moreover, the Activity result in data set [6] is “Dose-dependent-effect; Activity Was Better Than (+)-Jq1”; in data set [7] it was 83.2%. Besides, the k el in data set [8] is 0.000181 s⁻¹; in data set [17] it was 9.72e-05 s⁻¹. Also, the half-life in data set [9] is 63.6 min; in data set [18], 136 min; in data set [2], 2310 min. The Tmax came out at 4.8 min in [10] and 30 min in data set [19]. Moreover, the Cmax in data set [11] came to 4410 ng/mL; in data set [20], 5480 ng/mL. Besides, the exposure AUC(0-t) in data set [12] came out at 4640 ng·h/mL; in data set [21] it was 18300 ng·h/mL. Also, the AUC(0-inf) amounted to 4660 ng·h/mL in data set [13] and 20900 ng·h/mL in data set [22]. Further, the MRT in data set [14] stood at 1.32 h; in [23], 3.9 h. Further, the CL is recorded as 2 10^-4(mg/kg)/(ng/ml)/hr in data set [15] and 0.001 (mg/kg)/(ng/ml)/hr in [24]. The Vdss in data set [16] was 3 10^-4(mg/kg)/(ng/ml). Moreover, in [25], the bioavailability is 44.8%. The microsomal CLint in [3] stood at 0.3 µL/min/mg. The Drug uptake entry in [26] and in data set [27] was “Active” throughout.
As for `Cc1sc2c(c1C)C(c1ccc(Cl)cc1)=N[C@@H](CC(=O)OC(C)(C)C)c1nnc(C)n1-2`, the IC50 in data set [1] was 30 nM; in [4], 3.15 µM; in data set [5], 2.7 µM. Moreover, the Activity result in data set [6] is “Dose-dependent-effect”.
`Cc1nnc2ccc(-c3nc4cnc(N5CCOCC5)cn4c3Nc3cccc(F)c3)cn12`: the IC50 in data set [1] turned out to be 870 nM.

As usually defined, the IC50 is the concentration that inhibits the measured activity by half. For orientation: half-life means the time in which the quantity being followed falls by half. A word on the Tmax: it is the time from dosing to the highest level. One may read the Cmax as the highest concentration seen after dosing. As usually defined, the AUC(0-t) is exposure summed from dosing to a finite time, without extrapolation to infinity. Read a low AUC(0-t) as less exposure. In general, AUC(0-inf) refers to total exposure, with the tail of the curve extrapolated. High values mean high exposure, low ones low exposure. One may read the MRT as a mean duration of stay, worked out from the concentration-time curve. As a reminder, the bioavailability is dose-corrected exposure relative to a reference, in per cent. Read a high bioavailability as much systemic uptake.
